{"source": "patent US10875898B2", "about": "“Bioactive protein, use thereof and method for its production” (Koppert B.V., priority 2014, dated 2020)", "format_in_all_cases": "in vivo", "key": {"tomato plants": {"test_system": "tomato plants", "assay": "tomato plant growth, watering and spraying", "conditions": "0.01 μM, once per week for one month; vs T. harzianum T22, GERMON E and untreated control", "excerpt": "FIG. 10: Effect of HYTLO1 on tomato plant growth as compared to treatment with T. harzianum strain T22 or the Commercial product GERMON E (G-E) base on the auxin 1-naphthaleneacetic acid, commercialized by L. Gobbi, Italy. (A) Growth increase of root and stem of HYTLO1 vs. water control, GERMON E or T22, 10 days after treatment. (B) Increase of root development (HYTLO1 treatment on the left, untreated control on the right), (C) Effect of HYTLO1 on plant size compared to T22. (D) Effect of HYTLO1 on root development compared to water control, T22, GERMON E (also in combination with HYTLO1). HYTLO1 was applied at final concentration in the soil at 10^−8 M.\nFIG. 11: Effect of purified HYTLO1 on tomato plants, applied by drench on the roots or by spraying on the leaves. For the irrigation, 50 ml of a solution containing 0.072 μg/ml of HYTLO1 (0.01 μM) were applied for each pot containing 1 litre of soil and 2 tomato plants, for a total of 4 applications. For foliar application, 20 ml of a solution containing 0.072 μg/ml (0.01 μM) of HYTLO1 were sprayed for each pot containing 2 tomato plants for a total of 4 applications. […]"}, "tomato leaves": {"test_system": "tomato leaves", "assay": "activation of tomato plant defense responses after leaf injection", "protocol": "FIG. 5: Effect of purified HYTLO1 (5 μM) injected on tomato leaves after 48 hours under UV light. Fluorescence is due to accumulation of compounds related to plant defense response.\nFIG. 6: Effect of purified HYTLO1 ([…]) on the activation of tomato plant defense responses. Leaves were injected with […] of the protein solution and analyzed after 24 and 48 hours for the production of: (A) anion superoxide (XTT assay, mg p.s.=milligram of dry weight), (B) SOD activity (U/mg proteins), (C) ROOH peroxide accumulation (FOX1 assay), (D) LOX activity, (E) phytoalexin rishitin accumulation (g f.w.=gram of leaf fresh weight). Values are means+S.E. Methods used are the followings. Lyophilized plant tissues (10 mg) from HYTLO1-injected and -non injected tomato leaves were collected at different time points after inoculation (from 6 to 48 h) and homogenized. Anion superoxide was detected by measuring the reduction of 2,3-bis(2-methoxy-4-nitro-5-sulfophenyl)-5-[(phenylamino) carbonyl]-2H-tetrazolium hydroxide (XTT) to formazan, according to Sutherland, M. W., and B. A. Learmonth, 1997, Free Radical Research, 27:283-289, with modifications reported by Castoria, R., et al., 2003, Phytopathology, 93:564-572. Absorbance at 490 nm was measured in a microplate reader. XTT levels were expressed as mean absorbance values mg-1±standard errors. The activities of SOD, pH 7.8 and 10.0 (EC 1.15.1.1) and LOX enzymes (EC 1.13.11.12) were quantified as described by Reverberi M, et al., 2005, Free Radical Research, 39:637-647. Total hydroperoxides (ROOH) were detected by using the FOX spectrophotometric assay by monitoring the oxidation of xylenol orange at 560 nm (Ferrous ion oxidation xylenol orange: FOX-1) (Banerjee D, et al., 2003, Clinica Chimica Acta, 337:147-152). Quantification of the phytoalexins rishitin was performed by treating the leaf samples with methylene chloride (2 ml) in the presence of 100 mg of BHT. The tubes were left in a fume hood for 15/20 minutes and occasionally shaken. The extracts were filtered on filter paper Whatmann 3 MM and dried under nitrogen flow. Rishitin was quantified by GC-MS as described in Fanelli et al., 1992, Natural Toxins 1: 136-146.\nFIG. 7: Effect of purified HYTLO1 on the activation of tomato plant defense responses. Leaves were injected with HYTLO1 at the indicated concentrations and analyzed after 48 hours by Real Time PCR for the accumulation of PR (Pathogenesis-Related)-proteins PR1, PR2 and PIN2 RNA (for methods see Tucci M., et al., 2011, Molecular Plant Pathology, 12:341-354) Values indicated the n. of fold increase vs. untreated control.\nWe analyzed the plant biochemical reaction to HYTLO1, which resulted stimulatory for the formation of the superoxide anion and hydrogen peroxide, for anion superoxide dismutase (SOD) and LOX activity, and the accumulation of the phytoalexin rishitin (FIG. 6)."}, "cucumber": {"test_system": "cucumber", "assay": "combined application of HYTLO1 and Trichoderma spp. strains on cucumber growth promotion", "conditions": "20 days after seed coating", "protocol": "The results are shown in Table 2 and expressed in terms of increased stem and root length or fresh/dry weight. Cucumber seeds were coated with the purified molecule solutions and/or spore suspension, transferred into Petri dishes and left to germinate on humid filter paper. Germinated seedlings were transplanted into pots containing sterilised soil. Other two treatments with the purified molecules were performed at 7 days interval, by drenching the soil with the solutions at the final concentrations of 10^−8M for HYTLO1, and 1 ml of a 10^7 spore/ml suspension per 10 ml soil. In two-compounds application, half dose of each molecule was used. Each treatments was performer on at least 8 plants, and results were collected 20 days after seed coating. This experiment confirmed the beneficial effect exerted by HYTLO1 alone and in combination with Trichoderma species on plant growth. […] In particular, and only as an example, combined treatment with T. harzianum T22+HYTLO1, and T. harzianum strain TH1+HYTLO1 determined a significant increase in plant growth promotion effect of up to 33% more compared to controls (synergistic results as by the Limpel's formula are underlined in the Table)."}, "[1]": {"conditions": "0.15, 2.5, 5.0 mM, 24 and 48 hours"}}, "data": [{"substance": "HYTLO1: about 7 KDa Type II hydrophobin protein from Trichoderma longibrachiatum strain MK1, 71 aa, SEQ ID NO: 1", "values": [{"measurement": "growth parameters (plant height and length, root length and weight, number of leaves, stem diameter and weight)", "setting": "tomato plants", "value": "increased all of the growth parameters"}, {"measurement": "accumulation of fluorescent compounds under UV light", "setting": "tomato leaves; 5 μM injected on tomato leaves, after 48 hours", "value": "accumulation of fluorescent compounds"}, {"measurement": "LOX activity", "setting": "tomato leaves; [1]", "value": "stimulatory"}, {"measurement": "accumulation of the phytoalexin rishitin", "setting": "tomato leaves; [1]", "value": "stimulatory"}, {"measurement": "anion superoxide dismutase (SOD) activity", "setting": "tomato leaves; [1]", "value": "stimulatory"}, {"measurement": "formation of hydrogen peroxide (ROOH, FOX1 assay)", "setting": "tomato leaves; [1]", "value": "stimulatory"}, {"measurement": "formation of the superoxide anion (XTT assay)", "setting": "tomato leaves; [1]", "value": "stimulatory"}, {"measurement": "defense responses in leaves distant from the site of application", "setting": "tomato leaves; tomato leaf injection", "value": "systemic effect"}, {"measurement": "activation of defense-related genes PR1, PR2 and PIN1 (RT-PCR)", "setting": "tomato leaves; tomato leaves, 48 hours", "value": "induced the activation"}, {"measurement": "plant height (cm), percentage increase compared to water control", "setting": "cucumber; 10^−8M HYTLO1, 10^7 spore/ml, half dose in combinations, SD +− 1.5", "value": 1.8, "unit": "%"}, {"measurement": "Root length (cm), percentage increase compared to water control", "setting": "cucumber; SD +− 2.0", "value": 8.5, "unit": "%"}, {"measurement": "Plant fresh weight (g), percentage increase compared to water control", "setting": "cucumber; SD +− 2.8", "value": 4.2, "unit": "%"}, {"measurement": "Plant dry weight (g), percentage increase compared to water control", "setting": "cucumber; SD +− 3.1", "value": 7.3, "unit": "%"}]}]}
